Patent publication US20250064756A1, “NANOCRYSTALLINE TIO2 AND ZNO ORGANOSELENIUM SCAFFOLDS POSSESING DISELENIDE (SE-SE) FUNCTIONALITY FOR BIOMEDICAL TECHNOLOGY” (KING FAISAL UNIVERSITY, priority 2023, published 2025)
Values joined by “and” are separate entries in the source; they are usually repeats but may differ in a detail not shown here. Equal entries are not always repeated.

How the values were obtained:
Experiment in all cases: Antimicrobial activity, agar diffusion assay
Assay type in all cases: cell-based
E. coli (−ve) = conditions: for A %: Cip. = 100
Experimental: (§1) All reagents and solvents used in these studies were purchased from Sigma and used without purification. Melting points (MP) were measured on the Gallenkamp apparatus in degrees centigrade. The IR spectra (KBr, λmax·cm^−1) were recorded on a Mattson spectrophotometer (5000 FTIR) at King Faisal University. The ^1H & ^13C NMR spectra were measured using Varian Spectrophotometer (400 MHz), employing DMSO-d6 as the solvent and TMS internal standard at Mansoura University. The chemical shifts (δ, ppm) were recorded regarding the solvent residual peaks. GC-MS-QP-100 EX Shimadzu apparatus was used for mass measurements at Cairo University. All biological tests were carried out at the Faculty of Pharmacy, Mansoura University. All cell lines and microorganisms were purchased from the VACSERA Company (ATCC), Cairo, Egypt. DPPH and ABTS probes were obtained from Sigma.
(§2) In General, the diaryl diselenide B manifested promising antimicrobial activity against E. coli (A %=83%), S. aureus (A %=86%), and C. Albicans (A %=88%).

C. albicans = conditions: for A %: Col. = 100
Experimental: as §1, §2

S. aureus (+ve) = conditions: for A %: Cip. = 100
Experimental: as §1, §2

P. aeruginosa (−ve) = conditions: for A %: Cip. = 100
Experimental: as §1, §2

B. subtilis (+ve) = conditions: for A %: Cip. = 100
Experimental: as §1, §2

A. flavus = tested on: A. flavus
Experimental: as §1, §2

COC(=O)c1cc([Se][Se]c2ccc(N)c(C(=O)OC)c2)ccc1N [Compound B, dimethyl 5,5-diselanediylbis(2-aminobenzoate)]
IZD (agar diffusion assay diameter) (E. coli (−ve)): 19 mm
A % (E. coli (−ve)): 83%
IZD (agar diffusion assay diameter) (C. albicans): 21 mm
A % (C. albicans): 88%
IZD (agar diffusion assay diameter) (S. aureus (+ve)): 18 mm
A % (S. aureus (+ve)): 86%

Nc1ccc([Se][Se]c2ccc(N)cc2)cc1 [Compound A]
IZD (agar diffusion assay diameter) (P. aeruginosa (−ve)): 11 mm
A % (P. aeruginosa (−ve)): 48%
IZD (agar diffusion assay diameter) (E. coli (−ve)): 14 mm
A % (E. coli (−ve)): 54% and 62% and 65%
IZD (agar diffusion assay diameter) (B. subtilis (+ve)): 15 mm
A % (B. subtilis (+ve)): 65%
IZD (agar diffusion assay diameter) (C. albicans): 12 mm
A % (C. albicans): 44%
IZD (agar diffusion assay diameter) (A. flavus): 8 mm
A % (A. flavus; Col. = 100): 32%
IZD (agar diffusion assay diameter) (S. aureus (+ve)): 17 mm
A % (S. aureus (+ve)): 71%

O=C(O)c1cn(C2CC2)c2cc(N3CCNCC3)c(F)cc2c1=O [Cip., reference compound]
IZD (agar diffusion assay diameter) (P. aeruginosa (−ve)): 23 mm
A % (P. aeruginosa (−ve)): 100%
IZD (agar diffusion assay diameter) (E. coli (−ve)): 26 mm
A % (E. coli (−ve)): 100%
IZD (agar diffusion assay diameter) (B. subtilis (+ve)): 23 mm
A % (B. subtilis (+ve)): 100%
IZD (agar diffusion assay diameter) (S. aureus (+ve)): 24 mm
A % (S. aureus (+ve)): 100%
